Results on 3 compounds are retold here after article PMC2775099 (Bioorganic & medicinal chemistry, 2009).

The assay concerns the target rat nNOS (Rattus norvegicus, UniProt P29476). Conditions: for potency with nNOS relative to 1: amine in the chain replaced with ether or amide.

In the case of `Cc1cc(N)nc(CC2CNCC2NC(=O)CNCCc2cccc(F)c2)c1` (stereo not drawn) [compound 3, N-(4-((6-Amino-4-methylpyridin-2-yl)-methyl)-pyrrolidin-3-yl)-2-(3-fluorophenethylamino)-acetamide], for the setting “nNOS, amine replaced with amide”, the “loss of binding affinity relative to 1” value is on record as 3-4 fold. Regarding `Cc1cc(N)nc(CC2CNCC2NCCOCCc2cccc(F)c2)c1` (stereo not drawn) [compound 4, 6-((4-(2-(3-Fluorophenethoxy)ethylamino)pyrrolidin-3-yl)methyl)-4-methyl-pyridin-2-amine], the “potency with nNOS relative to 1” value is reported as “significant loss in potency”. On the same count and under the same terms, in the case of `Cc1cc(N)nc(CC2CNCC2OCCNC(=O)Cc2cccc(F)c2)c1` (stereo not drawn) [compound 6, N-(2-(4-((6-Amino-4-methylpyridin-2-yl)-methyl)pyrrolidin-3-yloxy)ethyl)-2-(3-fluorophenyl)acetamide] it was “significant loss in potency”.
